Source: US6646151B1 (dated 2003)

Compared with `C#CCO/N=C(/C(C)=NOCc1ccccc1C(=COC)C(=O)OC)c1ccc(F)cc1`, `CO/C=C(/C(=O)OC)c1ccccc1CO/N=C(C)/C(=N/OC)c1ccc(OCc2cccc(C(F)(F)F)c2)cc1` is higher in melting point: 91 to 93 °C for the first, 102 to 103 °C for the second.

For `CCO/N=C(/C(C)=NOCc1ccccc1C(=NOC)C(=O)OC)c1ccc(Oc2ccc(Cl)cc2)cc1`, the melting point was 90 to 93 °C.
